Tests used:
caspase-8 = experiment: Caspase-8 activation (Fas-induced apoptosis) in lung fibroblasts; format: cell-based, human; conditions: MRC5
Procedure: To assess the effects of these cytokines on PTPN13 expression, non-diseased normal human lung fibroblasts (NHLF), fibrotic human lung fibroblasts (FHLF) and a fetal lung fibroblast cell line, MRC5 cells, were treated with TNF-α (10/ng/ml), IFN-γ (50 U/ml) or with both cytokines for 6 hours. PTPN13 expression was measured by quantitative PCR (FIG. 2A). The primary lung fibroblasts from normal and fibrotic lung had equivalent levels of PTPN13 expression to the MRC5 lung fibroblast cell line. […] Treatment with TNF-α alone caused a 40% decrease in PTPN13 expression. Combined exposure to TNF-α and IFN-γ decreased PTPN13 mRNA expression by 80%. Protein lysates from normal, fibrotic and MRC5 fibroblasts treated for 36 hours with TNF-α (10/ng/ml), IFN-γ (50 U/ml) or with both cytokines were then analyzed for PTPN13 expression. […]
In one exemplary method, to assess whether PTPN13 expression prevents Fas-induced apoptosis, PTPN13 expression was knocked-down using siRNA. […] Apoptosis was assayed by quantifying activation of caspase-3 and caspase-8 (FIG. 3C).
In death-receptor mediated apoptosis, formation of the DISC (Death-Inducing Signaling Complex) is essential for the initiation of apoptosis. […] The cells were lysed, immunoprecipitated with anti-Fas antibody, and co-immunoprecipitated FADD and caspase-8 were detected by immunoblotting. […]

Fas phospho-Y291 = experiment: Tyrosine phosphorylation of Fas at tyrosine 291 by Western blot in MRC5 lung fibroblasts; format: cell-based, human; conditions: pervanadate 150 μM, time dependent
Procedure: PTPN13 has been shown in astrocytoma cells to dephosphorylate Fas at tyrosine 291. Little is known about the regulatory function of tyrosine phosphorylation of Fas. In another exemplary embodiment, to assess the effect of TNF-α and IFN-γ sensitization on the levels of Fas tyrosine phosphorylation, MRC5 lung fibroblasts were treated with TNF-α and IFN-γ for increasing amounts of time. Because TNF-α is known to increase tyrosine phosphorylation of many proteins, such as MAP kinases and AKT, within minutes following stimulation, the kinetics of TNF-α and IFN-γ induced tyrosine phosphorylation of Fas were assessed. MRC5 lung fibroblasts were treated with TNF-α (10 ng/ml) and IFN-γ (50 U/ml) for up to 48 hours. The cells were lysed and analyzed by western blot for phosphorylated Fas, using a phospho-specific antibody for Fas phosho-Y291. TNF-α and IFN-γ increased tyrosine phosphorylation of Fas at tyrosine residue 291 beginning at 18 hours. […] The pervanadate treated MRC5 cells were lysed and analyzed the tyrosine phosphorylation of Fas by western blotting. […] We then detected phosphorylated Fas by Western blot, using a phospho-specific antibody for Fas tyrosine residue 291. […]
FIG. 5: Inhibition of tyrosine phosphatase activity sensitizes lung fibroblasts to Fas-induced apoptosis. […] Caspase-8 activation was measured by a fluorescence based assay. […]

For pervanadate, the “caspase-8 activity over unstimulated cells” value (caspase-8; 150 μM pervanadate 2 hour pre-treatment, then Fas-activating antibody 250 ng/ml) was 6 fold, the “caspase-8 activity above untreated cells” value (caspase-8; 150 μM pervanadate alone) was 2 fold and the “tyrosine phosphorylation of Fas (Y291)” value (Fas phospho-Y291) was “increased”.
